Results as given in patent publication US20040039014A1, “Methods and compounds for treating depression and other disorders” (NPS Pharmaceuticals, Inc., priority 1998, published 2004).
Counter-ions that a name gives are not always drawn. Like-named read-outs stand apart in the source and are kept apart here. Blank lines part the entries; values can stand above or below the molecule they belong to.

How the values were obtained:
NMDA receptor = molecular target: T1, NMDA receptor; experiment: [3H]MK-801 binding assay (rat cortex synaptic plasma membranes); settings: read-out: [3H]MK-801 data IC50, Table I
T1 construct: rat cortex membranes
Description: Synaptic plasma membranes (SPMs) from rat cortex were prepared as follows. Isolated cerebral cortices from male and female rats were purchased from Pel-Freez (Rogers, Ariz.) in bulk, and stored at −80° C. The cortices from 25 rats were thawed and pooled. […] The resulting homogenates were centrifuged for 10 min at 1,000×g in a T865 rotor, UltraPro80 Sorvall Centrifuge. The supernatant was removed and subsequently centrifuged at 30,000×g for 30 min. […] Membranes were washed by re-suspension in 500 ml of 5 mM K-EDTA (pH 7.0), incubated at 32° C. for 30 min with stirring, and centrifuged at 100,000×g for 30 min. The final pellet was resuspended in 60 ml of […] K-EDTA (pH 7.0) and stored in aliquots at −80° C. The extensive washing procedure utilized in this assay was designed to minimize the concentrations of glutamate and glycine (co-agonists at the NMDA receptor-ionophore complex) present in the membrane preparation.
On the day of assay, aliquots of SPM were thawed and resuspended in 75 vols of 5 mM K-EDTA, pH 7.0. SPM were centrifuged at 100,000×g for 30 min at 4° C.
The SPM pellet was resuspended in assay buffer (30 mM EPPS, 1 mM K-EDTA, pH 7.0) by polytron. […] Binding was started by the addition of the tissue homogenate. The assay was terminated by the addition of 4 ml ice-cold buffer, followed by filtration over glass-fiber filters (Schleicher & Schuell No. 30) on a Millipore 12-well filtration manifold. Filters were washed with another 3 ×4 ml ice-cold buffer (pH 7.0). Radioactivity on the filters was measured using Fisherbrand Scinti-Safe scintillation cocktail. Samples were shaken for 45-60 min on a shaker platform to solubilize the radioactivity. Counting for ^3H was performed in a Beckman 6000IC LS Scintillation Counter for 4 min per sample.

[1] = molecular target: T2, norepinephrine transporter site (Rattus norvegicus, UniProt Q63380); experiment: Norepinephrine reuptake inhibition assay ([3H]nisoxetine binding, rat forebrain membranes); settings: for inhibition at 0.1 µM / inhibition at 10 µM: read-out: NE Uptake mean % inhibition; for Ki: read-out: NE Uptake Ki
T2 construct: tissue NovaScreen (performed the assay); host or cells: rat forebrain membranes
T2 sequence (Q63380 1-617): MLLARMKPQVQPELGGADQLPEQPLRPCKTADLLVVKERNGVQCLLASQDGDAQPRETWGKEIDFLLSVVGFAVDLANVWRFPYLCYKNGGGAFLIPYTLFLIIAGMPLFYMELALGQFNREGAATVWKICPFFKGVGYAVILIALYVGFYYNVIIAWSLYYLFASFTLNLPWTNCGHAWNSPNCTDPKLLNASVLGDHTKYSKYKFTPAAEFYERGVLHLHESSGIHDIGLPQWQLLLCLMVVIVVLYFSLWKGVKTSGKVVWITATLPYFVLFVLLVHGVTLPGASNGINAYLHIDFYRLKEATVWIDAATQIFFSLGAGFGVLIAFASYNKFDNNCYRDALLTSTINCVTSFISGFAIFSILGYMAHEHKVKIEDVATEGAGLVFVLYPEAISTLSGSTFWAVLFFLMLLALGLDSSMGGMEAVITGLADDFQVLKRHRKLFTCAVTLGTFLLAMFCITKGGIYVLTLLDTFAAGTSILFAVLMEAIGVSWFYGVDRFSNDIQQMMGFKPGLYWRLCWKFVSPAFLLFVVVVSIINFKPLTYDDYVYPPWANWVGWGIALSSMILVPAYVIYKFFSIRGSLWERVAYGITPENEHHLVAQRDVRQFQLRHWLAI
Description: (§1) Monoamine Transporter Minding Assays
(§2) Monoamine transporter binding assays (reuptake inhibition assays) were performed by NovaScreen using standard radioligand binding assays. The transporter binding assays are described briefly below:
Norepinephrine Reuptake Inhibition Assay
Reactions were terminated by rapid vacuum filtration onto glass fiber filters.

[2] = molecular target: T3, serotonin transporter site (Rattus norvegicus, UniProt P31652); experiment: Serotonin reuptake inhibition assay ([3H]citalopram binding, rat forebrain membranes); settings: Table I; for inhibition at 0.1 µM: @ 100 nM (top number); for inhibition at 0.1 µM / inhibition at 10 µM: read-out: 5-HT Uptake mean % inhibition; for inhibition at 10 µM: @ 10.0 μM (bottom number); for Ki: read-out: 5-HT Uptake Ki
T3 construct: tissue NovaScreen (performed the assay); host or cells: rat forebrain membranes
T3 sequence (P31652 whole entry): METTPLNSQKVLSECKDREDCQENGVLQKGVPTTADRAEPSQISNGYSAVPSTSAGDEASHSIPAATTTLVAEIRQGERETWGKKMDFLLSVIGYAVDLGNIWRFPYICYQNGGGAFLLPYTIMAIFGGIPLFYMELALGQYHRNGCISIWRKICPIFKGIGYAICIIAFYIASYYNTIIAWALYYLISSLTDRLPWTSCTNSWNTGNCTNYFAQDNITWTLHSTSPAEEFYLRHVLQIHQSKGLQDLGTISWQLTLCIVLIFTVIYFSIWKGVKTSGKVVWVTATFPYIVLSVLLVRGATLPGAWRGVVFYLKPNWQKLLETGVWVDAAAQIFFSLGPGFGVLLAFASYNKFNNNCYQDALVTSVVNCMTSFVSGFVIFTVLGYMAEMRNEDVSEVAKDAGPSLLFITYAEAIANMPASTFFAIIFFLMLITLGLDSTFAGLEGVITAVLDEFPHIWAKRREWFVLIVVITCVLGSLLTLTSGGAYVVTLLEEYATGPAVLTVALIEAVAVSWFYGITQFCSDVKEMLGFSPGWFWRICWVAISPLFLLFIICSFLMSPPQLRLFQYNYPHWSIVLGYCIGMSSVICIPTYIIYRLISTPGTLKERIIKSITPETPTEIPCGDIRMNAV
Description: as §1, §2
Serotonin Reuptake Inhibition Assay
Rat forebrain membranes were incubated with 0.7 nM [^3H] citalopram, N-methyl, (70-87 Ci/mmol)in 50 mM Tris-HCl (pH 7.4), 120 mM NaCl, and 5 mM KCl at 25° C. for 60 minutes. […] Reactions were terminated by rapid vacuum filtration onto glass fiber filters.

[3] = molecular target: T4, dopamine transporter site (Cavia porcellus, UniProt H0WCX4); experiment: Dopamine reuptake inhibition assay ([3H]WIN 35428 binding, guinea pig striatal membranes); settings: for inhibition at 0.1 µM / inhibition at 10 µM: read-out: DA Uptake mean % inhibition; for Ki: read-out: DA Uptake Ki
T4 construct: tissue NovaScreen (performed the assay); host or cells: guinea pig striatal membranes
T4 sequence (H0WCX4 1-619): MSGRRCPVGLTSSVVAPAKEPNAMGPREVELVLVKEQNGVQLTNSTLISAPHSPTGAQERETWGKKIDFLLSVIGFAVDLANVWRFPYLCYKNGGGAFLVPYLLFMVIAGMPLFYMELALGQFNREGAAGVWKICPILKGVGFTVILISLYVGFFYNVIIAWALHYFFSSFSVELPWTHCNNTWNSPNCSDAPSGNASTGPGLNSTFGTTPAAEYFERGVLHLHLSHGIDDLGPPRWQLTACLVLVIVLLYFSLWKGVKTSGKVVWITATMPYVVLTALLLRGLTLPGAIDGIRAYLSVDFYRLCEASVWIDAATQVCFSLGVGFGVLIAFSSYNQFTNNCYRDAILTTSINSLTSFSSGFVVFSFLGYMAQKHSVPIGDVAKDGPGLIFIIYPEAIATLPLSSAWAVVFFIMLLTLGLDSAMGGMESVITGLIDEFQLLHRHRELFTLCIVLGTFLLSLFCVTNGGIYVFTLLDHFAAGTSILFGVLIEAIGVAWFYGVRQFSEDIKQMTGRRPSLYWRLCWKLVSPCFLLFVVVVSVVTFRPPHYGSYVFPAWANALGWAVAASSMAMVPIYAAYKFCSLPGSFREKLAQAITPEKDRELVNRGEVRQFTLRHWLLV
Description: as §1, §2
Dopamine Reuptake Inhibition Assay:
Reactions were terminated by rapid vacuum filtration onto glass fiber filters. Bound radioactivity was determined using liquid scintillation spectrometry and experimental values were compared to control values to determine binding to the dopamine transporter site based on Madras, et al., Molec.

[4] = @ 10.0 μM (bottom number), Table I

IC50 (NMDA receptor): 1540 nM
Structure (SMILES): CNCCC(c1cccc(F)c1)c1cccc(OC)c1 (centres unmarked) [Compound 142]

Structure (SMILES): CC(CN)C(c1cccc(Cl)c1)c1cccc(Cl)c1 (centres unmarked) [Compound 46]
inhibition at 0.1 µM [1]: 7.4%
inhibition at 10 µM [1]: 64%
inhibition at 0.1 µM [2]: 10.4%
inhibition at 10 µM [2]: 75.4%
inhibition at 0.1 µM [3]: 40.2%
inhibition at 10 µM [3]: 97.1%
IC50 (NMDA receptor): 5200 nM

IC50 (NMDA receptor): 150 nM
Structure (SMILES): NCCC(Oc1cccc(Cl)c1)c1cccc(Cl)c1 (centres unmarked) [Compound 149]

Structure (SMILES): NCCC1c2ccccc2CCc2ccccc21 [Compound 156, 5-(2-Aminoethyl)-5H-10,11-dihydrodibenzo [a, d] cycloheptene hydrochloride]
Ki ([1]; Table I): 570 nM
Ki [2]: 1200 nM
Ki ([3]; Table I): > 10000 nM
IC50 (NMDA receptor): 90 nM

Ki ([1]; Table I): 508 nM
Ki [2]: 252 nM
Ki ([3]; Table I): 119 nM
IC50 (NMDA receptor): 851 nM
Structure (SMILES): N[C@@H]1CCCC1C(c1cccc(F)c1)c1cccc(F)c1 (some centres unmarked) [Compound 64]

IC50 (NMDA receptor): 5010 nM
Structure (SMILES): NCCC1c2ccccc2Sc2ccccc21 [Compound 183]

inhibition at 0.1 µM ([1]; @ 100 nM (top number), Table I): 0%
inhibition at 10 µM [1, 4]: 27.5%
inhibition at 0.1 µM [2]: 9.8%
inhibition at 10 µM [2]: 58.1%
inhibition at 0.1 µM ([3]; @ 100 nM (top number), Table I): 0%
inhibition at 10 µM [3, 4]: 83.5%
IC50 (NMDA receptor): 53 nM
Structure (SMILES): NCCC1c2ccccc2CCc2ccc(F)cc21 (centres unmarked) [Compound 197]

Structure (SMILES): NCC[C@H](Oc1cccc(F)c1)c1ccccc1 [Compound 186]
Ki ([3]; Table I): 3100 nM

Structure (SMILES): NCCC(Oc1ccccc1)c1cccc(F)c1 (centres unmarked) [Compound 118]
Ki [2]: 131 nM
Ki ([3]; Table I): 4100 nM
IC50 (NMDA receptor): 240 nM

inhibition at 0.1 µM ([1]; @ 100 nM (top number), Table I): 1.3%
inhibition at 10 µM [1, 4]: 66.6%
inhibition at 0.1 µM [2]: 27.2%
inhibition at 10 µM [2]: 95.2%
inhibition at 0.1 µM ([3]; @ 100 nM (top number), Table I): 0%
inhibition at 10 µM [3, 4]: 45.2%
IC50 (NMDA receptor): 203 nM
Structure (SMILES): Cc1ccc(F)cc1C(CCN)c1cc(F)ccc1C [Compound 58]

inhibition at 0.1 µM ([1]; @ 100 nM (top number), Table I): 33.6%
inhibition at 10 µM [1, 4]: 94.9%
inhibition at 0.1 µM [2]: 8.5%
inhibition at 10 µM [2]: 84.3%
inhibition at 0.1 µM ([3]; @ 100 nM (top number), Table I): 1.8%
inhibition at 10 µM [3, 4]: 91.3%
IC50 (NMDA receptor): 670 nM
Structure (SMILES): COc1ccccc1OC(CCN)c1cccc(F)c1 (centres unmarked) [Compound 121]

Structure (SMILES): Fc1ccc([C@@H]2CCNC[C@H]2COc2ccc3c(c2)OCO3)cc1 [Paroxetine, reference compound]
inhibition at 0.1 µM [3]: < 20%

IC50 (NMDA receptor): 2240 nM
Structure (SMILES): NCCC1c2ccccc2CCc2c(F)cccc21 (centres unmarked) [Compound 196]

Structure (SMILES): NCC[C@H](Oc1cccc(F)c1)c1cccc(F)c1 [Compound 192]
Ki ([1]; Table I): 325 nM
Ki [2]: 14 nM
Ki ([3]; Table I): 1300 nM

IC50 (NMDA receptor): 1510 nM
Structure (SMILES): NCCC1c2ccccc2C=Cc2ccccc21 [Compound 184]

IC50 (NMDA receptor): > 1000 nM
Structure (SMILES): NCCC1c2cccc(F)c2CCc2c(F)cccc21 [Compound 193]

Ki ([1]; Table I): 103 nM
Ki [2]: 62 nM
Ki ([3]; Table I): 2800 nM
IC50 (NMDA receptor): 342 nM
Structure (SMILES): NCCC(Oc1ccccc1F)c1cccc(F)c1 (centres unmarked) [Compound 122]

IC50 (NMDA receptor): 74 nM
Structure (SMILES): NCCC(Oc1cccc(Cl)c1)c1cccc(F)c1 (centres unmarked) [Compound 120]

inhibition at 0.1 µM ([1]; @ 100 nM (top number), Table I): 7.4%
inhibition at 10 µM [1, 4]: 50.6%
inhibition at 0.1 µM [2]: 14.3%
inhibition at 10 µM [2]: 85.7%
inhibition at 0.1 µM ([3]; @ 100 nM (top number), Table I): 1.6%
inhibition at 10 µM [3, 4]: 77.6%
IC50 (NMDA receptor): 453 nM
Structure (SMILES): CCNCCC(c1cccc(F)c1)c1cccc(F)c1 [Compound 59]

IC50 (NMDA receptor): 351 nM
Structure (SMILES): NCCC(Oc1cccc(F)c1)c1cccc(Cl)c1 (centres unmarked) [Compound 150]

IC50 (NMDA receptor): 366 nM
Structure (SMILES): CN[C@@H](C)CC(c1cccc(F)c1)c1cccc(F)c1 [Compound 69]

IC50 (NMDA receptor): 942 nM
Structure (SMILES): CNCCC(c1ccccc1)c1cccc(F)c1 (centres unmarked) [Compound 108]

Structure (SMILES): NCCC(Oc1cccc(F)c1)c1cccc(F)c1 (centres unmarked) [Compound 119, 3-(3-Fluorophenoxy)-3-(3-fluorophenyl)-1-propylamine]
inhibition at 0.1 µM [2]: 0.6%
inhibition at 10 µM [2]: 3.1%

IC50 (NMDA receptor): 373 nM
Structure (SMILES): NCCC(Oc1ccccc1)c1cccc(Cl)c1 (centres unmarked) [Compound 148]

Structure (SMILES): NCC[C@@H](Oc1cccc(F)c1)c1cccc(F)c1 [Compound 191]
Ki ([1]; Table I): 638 nM
Ki [2]: 134 nM
Ki ([3]; Table I): 1550 nM
IC50 (NMDA receptor): 1300 nM

IC50 (NMDA receptor): 2010 nM
Structure (SMILES): NCCC1c2ccccc2COc2ccccc21 (centres unmarked) [Compound 187]

inhibition at 0.1 µM ([1]; @ 100 nM (top number), Table I): 6.8%
inhibition at 10 µM [1, 4]: 76.2%
inhibition at 0.1 µM [2]: 13.4%
inhibition at 10 µM [2]: 84.6%
inhibition at 0.1 µM ([3]; @ 100 nM (top number), Table I): 64.3%
inhibition at 10 µM [3, 4]: 97.8%
IC50 (NMDA receptor): 245 nM
Structure (SMILES): N[C@H]1CCCC1C(c1cccc(F)c1)c1cccc(F)c1 (some centres unmarked) [Compound 63]

inhibition at 0.1 µM ([1]; @ 100 nM (top number), Table I): 4.2%
inhibition at 10 µM [1, 4]: 36.5%
inhibition at 0.1 µM [2]: 6.1%
inhibition at 10 µM [2]: 67.5%
inhibition at 0.1 µM ([3]; @ 100 nM (top number), Table I): 4.4%
inhibition at 10 µM [3, 4]: 92.8%
IC50 (NMDA receptor): 1200 nM
Structure (SMILES): CNC[C@H](C)C(c1cccc(F)c1)c1cccc(F)c1 [Compound 66]

inhibition at 0.1 µM ([1]; @ 100 nM (top number), Table I): 16.6%
inhibition at 10 µM [1, 4]: 99.4%
inhibition at 0.1 µM [2]: 3.5%
inhibition at 10 µM [2]: 81.1%
inhibition at 0.1 µM ([3]; @ 100 nM (top number), Table I): 0%
inhibition at 10 µM [3, 4]: 87.4%
IC50 (NMDA receptor): 626 nM
Structure (SMILES): CNCCC(Oc1cccc(F)c1)c1cccc(F)c1 (centres unmarked) [Compound 145]

Structure (SMILES): NCC[C@@H](Oc1cccc(F)c1)c1ccccc1 [Compound 185, (R)-3-(3-Fluorophenoxy)-3-phenylpropylamine]
Ki [2]: 2400 nM
Ki ([3]; Table I): 1100 nM

inhibition at 0.1 µM ([1]; @ 100 nM (top number), Table I): 10.7%
inhibition at 10 µM [1, 4]: 32%
inhibition at 0.1 µM [2]: 37.4%
inhibition at 10 µM [2]: 74.2%
inhibition at 0.1 µM ([3]; @ 100 nM (top number), Table I): 0%
inhibition at 10 µM [3, 4]: 109%
IC50 (NMDA receptor): 632 nM
Structure (SMILES): Cc1ccccc1OC(CCN)c1cccc(F)c1 (centres unmarked) [Compound 181]

IC50 (NMDA receptor): 29 nM
Structure (SMILES): NCCC1c2cc(F)ccc2CCc2ccc(F)cc21 [Compound 195]

IC50 (NMDA receptor): 7050 nM
Structure (SMILES): NCCC1c2ccccc2Oc2ccccc21 [Compound 182]

Structure (SMILES): Cc1ccccc1OC(CCN)c1ccccc1 (centres unmarked) [Compound 177]
Ki [1]: 109 nM
Ki ([3]; Table I): > 10000 nM
IC50 (NMDA receptor): 754 nM

Structure (SMILES): Cc1ccccc1C(CCN)c1ccccc1C [Compound 65]
Ki [2]: 127 nM
Ki ([3]; Table I): 22000 nM
IC50 (NMDA receptor): 2000 nM

IC50 (NMDA receptor): 1250 nM
Structure (SMILES): COc1ccccc1OC(CCN)c1ccccc1 (centres unmarked) [Compound 178]

IC50 (NMDA receptor): 371 nM
Structure (SMILES): NCCC1c2cc(F)ccc2CCc2c(F)cccc21 (centres unmarked) [Compound 194]
